Some test systems named below: DMS-114; A549; SNB-19; OVCAR-4; HL-60; CCRF-CEM; HCT-116; NCI-H23; HCC 2998; SF-268; Malme-3M; EKVX; SF-295; SK-MEL-28; NCI-H522; UO-31; MDA-MB-435; MDA-MB-231; DU-145; T47D.
What all share (experiment): NCI tumour cell line growth inhibition, 48 h

SMILES strings stand for the structures.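 96-well plates; 48 h exposure; 5 concentrations. Endpoints by linear interpolation between flanking doses. Not reached: highest tested concentration assigned. GI50 marks 50% less growth.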 Active and inactive are the calls of the source. No stated cut-off is given here; in the data, active = GI50 up to about 1.1 µM and inactive = higher.

As to `CC1=C(C(=O)NCc2ccccc2)C(c2ccccc2C)C(C(=O)NCc2ccccc2)=C(C)N1`, the GI50 with DMS-114 is 29.6 µM (inactive); in the experiment with A549 it was 49.8 µM (inactive); in the experiment with SNB-19 it was 35.6 µM (inactive); with OVCAR-4, 27.2 µM (inactive); with HL-60, 21 µM (inactive); with CCRF-CEM, 29.6 µM (inactive). Besides, the GI50 was 19 µM (inactive) in the experiment on HCT-116; 33.1 µM (inactive) in the experiment on NCI-H23; 28.6 µM (inactive) with HCC 2998; 22.8 µM (inactive) with SF-268; 72.6 µM (inactive) in the experiment on Malme-3M; 58.7 µM (inactive) with EKVX. Besides, the GI50 with SF-295 was 29.7 µM (inactive); in the experiment on SK-MEL-28, 27.6 µM (inactive); in the experiment with NCI-H522, 28.4 µM (inactive); in the experiment with UO-31, 42.8 µM (inactive).

In the case of `CCc1ccccc1NC(=O)C(=O)CC(=O)c1sc(Nc2ccccc2)nc1C`, the GI50 in the experiment on DMS-114 was > 100 µM (inactive); in the experiment on A549, > 100 µM (inactive); in the experiment on SNB-19 it was > 100 µM (inactive); in the experiment with OVCAR-4, > 100 µM (inactive); with HL-60, 89.1 µM (inactive); with CCRF-CEM it was 32.1 µM (inactive). Further, the GI50 is > 100 µM (inactive) in the experiment with HCT-116; > 100 µM (inactive) in the experiment with NCI-H23; > 100 µM (inactive) with HCC 2998; > 100 µM (inactive) with SF-268; > 100 µM (inactive) in the experiment with Malme-3M; 29.4 µM (inactive) in the experiment on EKVX. Also, the GI50 with SF-295 is > 100 µM (inactive); in the experiment with SK-MEL-28, > 100 µM (inactive); in the experiment with NCI-H522, 73.5 µM (inactive); with UO-31, > 100 µM (inactive).

As for `CCc1nc2ccc(NCCN(C)C)c3c(=O)c4ccccc4n1c23`, the GI50 with DMS-114 was 1.49 µM (inactive); in the experiment with A549, 0.38 µM (active); in the experiment with SNB-19 it was 2.57 µM (inactive); with MDA-MB-435 it was 1 µM (active); with OVCAR-4, 1.02 µM (active); with HL-60, 1.75 µM (inactive). Moreover, the GI50 is 0.586 µM (active) in the experiment with CCRF-CEM; 0.337 µM (active) with HCT-116; 1.16 µM (inactive) in the experiment with NCI-H23; 0.762 µM (active) in the experiment with HCC 2998; 135 nM (active) with MDA-MB-231; 0.711 µM (active) with SF-268. Also, the GI50 is 1.61 µM (inactive) in the experiment on Malme-3M; 1.17 µM (inactive) in the experiment on EKVX; 0.741 µM (active) in the experiment with SF-295; 2.44 µM (inactive) with SK-MEL-28; 0.946 µM (active) with NCI-H522; 1.24 µM (inactive) in the experiment with UO-31. Moreover, the GI50 is 656 nM (active) in the experiment on DU-145 and 2.59 µM (inactive) with T47D.

In the case of `CC(C)C1COC(c2cccc(C3=N[C@@H](C(C)C)CO3)n2)=N1` (some centres undefined), the GI50 with DMS-114, in the experiment with A549, in the experiment on SNB-19, in the experiment with OVCAR-4, in the experiment with HL-60 and in the experiment on CCRF-CEM was > 100 µM (inactive) throughout. In addition, the GI50 in the experiment with HCT-116, in the experiment on NCI-H23, with HCC 2998, with SF-268, with Malme-3M and in the experiment with EKVX was > 100 µM (inactive) in each case. Also, the GI50 in the experiment on SF-295 was > 100 µM (inactive); with SK-MEL-28, > 100 µM (inactive); in the experiment with NCI-H522 it was > 100 µM (inactive); in the experiment on UO-31, 98.6 µM (inactive).

Consider `O=[N+]([O-])c1ccc2c(c1)OCCOCCOc1ccc([N+](=O)[O-])cc1OCCOCCO2`, for which the GI50 in the experiment with DMS-114, in the experiment with A549, in the experiment on SNB-19, with OVCAR-4, in the experiment on HL-60 and in the experiment with CCRF-CEM was > 100 µM (inactive) throughout. The GI50 in the experiment with HCT-116, in the experiment with NCI-H23, in the experiment with HCC 2998, in the experiment with SF-268, with Malme-3M and in the experiment on EKVX was > 100 µM (inactive) throughout. Moreover, the GI50 in the experiment with SF-295, in the experiment on SK-MEL-28, in the experiment with NCI-H522 and in the experiment with UO-31 was > 100 µM (inactive) in each case.

These data come from ChEMBL document CHEMBL1201862, “PubChem BioAssay data set” (2004).
